Several values for one entry are separate records, joined by “and”; a condition that tells them apart may be missing. Identical values can stand only once.
Tests used:
[1] = tested on: human acute myelogenous leukemia KG-1a cells; assay: KG-1a subcutaneous xenograft in NOD/SCID mice; format: in vivo; conditions: for Tumor weight: KG-1a, individual mice, end of experiment
Procedure: (§1) 7-week old female NOD/SCID mice were taken and inoculated subcutaneously with 1×10^7 cells (0.2 ml) per mouse in axilla, with human acute myelogenous leukemia KG-1a cells on the left and human acute monocytic leukemia THP-1 cells on the right. When tumors grew to a tumor size of around 0.5 cm, the mice were randomized into groups with 3 mice each. An equivalent amount of PBS was used for the control group, and the 14-D-Valine-TPL group was divided into two groups with 0.2 mg/kg body weight and 0.4 mg/kg body weight: intragastric administration 2 times a day (one at 8 a.m. and one at 4 p.m.) for consecutive 14 days of treatment. An observation was made for total 30 days, during which the conditions of the mice such as tumor size, weight, activity, diet, and the like were measured. At the end of the experiment, the mice were sacrificed, tumor tissues were taken and the tumors were weighed, and major organs and tissues of the mice such as liver, spleen, heart, lung, large intestine, small intestine, and the like were examined.
as §1, with “the left.” for “the left and human acute monocytic leukemia THP-1 cells on the right.”, “around 50-100 mm^3,” for “around 0.5 cm,”, “the TPL-LLV” for “the 14-D-Valine-TPL”, “with 0.23” for “with 0.2”, “and 0.46” for “and 0.4”, “intragastric administration,” for “intragastric administration”
as §1, with “the left.” for “the left and human acute monocytic leukemia THP-1 cells on the right.”, “around 50-100 mm^3,” for “around 0.5 cm,”, “the TPL-DLV” for “the 14-D-Valine-TPL”, “with 0.23” for “with 0.2”, “and 0.46” for “and 0.4”, “intragastric administration,” for “intragastric administration”
as §1, with “the left.” for “the left and human acute monocytic leukemia THP-1 cells on the right.”, “around 50-100 mm^3,” for “around 0.5 cm,”, “the TPL-DLV” for “the 14-D-Valine-TPL”, “with 0.32” for “with 0.2”, “and 0.64” for “and 0.4”, “intragastric administration,” for “intragastric administration”

[2] = molecular target: T1, XPB (Homo sapiens, UniProt P19447); assay: Immunoblot of XPB level in THP-1 cells, 48 h; format: cell-based; conditions: 160 nM
T1 construct: endogenous in cells; host or cells: THP-1
Procedure: (§2) Well-grown leukemia cells were taken and seeded into wells of a 6-well cell culture plate, with a density of 1×10^6/ml. The medium was 1640 cell medium containing 10% fetal bovine serum. 14-D-Valine-TPL with different concentrations was added, and after being uniformly mixed, the plate was placed in a carbon dioxide (5% CO2) cell incubator, and incubated at 37° C. for 48 hours. Cellular proteins were then extracted, and the immunoblot technique was used to detect the expression levels of XPB and Pol II.

[3] = tested on: c-myc; assay: Immunoblot of c-myc level in K562 cells, 48 h; format: cell-based, human; conditions: 80 nM
Procedure: as §2, with “level” for “levels”, “c-myc.” for “XPB and Pol II.”

T1 sequence (P19447 whole entry): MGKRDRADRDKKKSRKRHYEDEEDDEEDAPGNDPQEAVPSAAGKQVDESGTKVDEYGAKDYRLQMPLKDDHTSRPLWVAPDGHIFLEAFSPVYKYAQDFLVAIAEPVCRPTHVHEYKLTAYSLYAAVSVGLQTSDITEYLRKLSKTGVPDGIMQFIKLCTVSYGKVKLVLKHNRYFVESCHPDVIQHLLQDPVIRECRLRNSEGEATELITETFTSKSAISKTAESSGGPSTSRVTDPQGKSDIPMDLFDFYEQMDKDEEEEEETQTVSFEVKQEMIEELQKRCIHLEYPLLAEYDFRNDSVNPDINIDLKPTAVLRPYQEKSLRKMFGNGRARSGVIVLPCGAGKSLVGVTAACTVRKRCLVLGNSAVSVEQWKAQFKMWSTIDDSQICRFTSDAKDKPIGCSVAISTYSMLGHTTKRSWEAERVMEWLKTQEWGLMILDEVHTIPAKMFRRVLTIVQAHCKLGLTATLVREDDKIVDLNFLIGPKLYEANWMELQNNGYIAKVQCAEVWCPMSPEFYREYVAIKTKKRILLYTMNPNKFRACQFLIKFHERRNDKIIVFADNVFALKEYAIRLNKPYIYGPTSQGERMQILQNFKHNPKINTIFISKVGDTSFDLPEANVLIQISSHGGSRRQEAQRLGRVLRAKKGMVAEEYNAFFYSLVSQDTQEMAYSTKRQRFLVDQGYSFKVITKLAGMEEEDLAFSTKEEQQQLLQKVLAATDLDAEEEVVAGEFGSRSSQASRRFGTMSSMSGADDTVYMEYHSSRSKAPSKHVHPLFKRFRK

## CC(C)[C@@H](N)C(=O)O[C@@H]1[C@@]2(C(C)C)O[C@H]2[C@@H]2O[C@]23[C@]12O[C@H]2C[C@H]1C2=C(CC[C@@]13C)C(=O)OC2 [14-D-Valine-TPL, 14-Dextro-Valine-Triptolide]
[1]; KG-1a xenograft, intragastric 2 times a day, 14 days, dose-dependent effect
  growth of KG-1a in mice in vivo (in words): significantly inhibit the growth
[1]; trifluoroacetate 0.2 mg/kg intragastric 2 times a day, 14 days, listed as DV
  Tumor weight: 0.42 g and 1.49 g and 0.06 g and 0.98 g and 0.2 g and 0.5 g
[1]; trifluoroacetate 0.4 mg/kg intragastric 2 times a day, 14 days
  Tumor weight: 0 g
[1]; dose of 0.4 mg per kilogram of the body weight
  regression of KG-1a xenograft tumors: complete regression
[2]
  level of XPB (immunoblot): significantly inhibited
[3]
  level of c-myc (immunoblot): significantly inhibited
